Values of other authors in patent US20180169002A1, “Skin Rejuvenation and Defense Systems and Methods” (Maple Mountain Group, Inc., priority 2015, published 2018).

Conditions: compared with glycerin

For `NC(=O)NCCO` [Hydroxyethyl Urea, Hydroxyethyl urea], the moisturization efficacy is given as “comparable to the leading benchmark”.
